In patent US20230242494A1, “MALONITRILE DERIVATIVES” (Hoffmann-La Roche Inc., priority 2020, published 2023):

Molecular target: T1, human cGAS (residues 161-522) (Homo sapiens, UniProt Q8N884)
T1 construct: human cGAS (residues 161-522); made in house
Test: cGAS Activity Assay—Malachite Green
Assay type: biochemical
Conditions: recombinant purified human cGAS 25 nM; 80 μM ATP, 80 μM GTP, 100 nM ISD; 4 hour at RT; phosphate detection by Malachite Green
Method: Compounds were tested for cGAS inhibition in a coupled enzymatic assay based on Phosphate detection by Malachite Green. Final assay conditions were 20 mM TRIS pH 7.5 (Applichem), 5 mM MgCl2 (Sigma) and 0.01% BSA (Sigma) supplemented with 80 μM ATP (Sigma), 80 μM GTP (Sigma) and 100 nM Interferon Stimulating DNA (ISD) (Microsynth). Recombinantly expressed purified human cGAS (residues 161-522) was used at 25 nM.
All compounds were prepared as 10 mM stock solutions in DMSO and a 16 pt dilution series in DMSO with a dilution factor of 2.5 was prepared. 1 μL of DMSO dilution series was transferred to 32.3 μL reaction buffer, mixed by pipetting up/down, spun for 1 minute at 3000 rpm and was visually inspected for precipitation. 5 μL of 3-fold enzyme stock solution were transferred to an empty 384-well Black/Clear Flat Bottom Polystyrene NBS (Corning) rows 3-24. Rows 1-2 were filled with assay buffer. Plates were spun 10 seconds at 1000 rpm (164×g). 5 μL of compound intermediate dilution was added and mixed by pipetting up/down to rows 3-24. Rows 1-2 were filled with 3.1% DMSO assay buffer. Plates were spun 10 seconds at 1000 rpm (164×g). 5 μL 3-fold Nucleotide/DNA mix was added to all wells to start the reaction. Plates were spun 10 seconds at 1000 rpm (164×g) and incubated for 4 hour at room temperature (RT) in the dark. 5 μL 4 U/ml PPase (Sigma) were added to all wells. Plates spun 10 seconds at 1000 rpm (164×g). 10 μL BioMol green Solution (Enzo Life Sciences) was added to all wells. Plates spun 10 seconds at 1000 rpm (164×g) and incubated 30 minutes at RT in the dark. Absorbance data was collected 620 nm on an EnVision Multilable Reader (Perkin Elmer) and the following measurement settings were used: excitation filter photometric was 620 nm; excitation from the top; measurement height was 1 mm; number of flashes was 30; number of flashes integrated was 1.
All plates are checked for abnormalities and outliers in the Blank Control (no protein, row 1) and the Neutral Control (no compound, row 2) are excluded using the 3*SD rule. Data was normalized to 0 and 100% by Blank and Neutral Control and each curve was fitted and judged using the 4 parameter logistic equation to determine the IC50 for cGAS inhibition.
Table 13 provides IC50 values (μM) for cGAS inhibition obtained for particular examples of the present invention as measured by the above-described assay.

T1 sequence (Q8N884 161-522): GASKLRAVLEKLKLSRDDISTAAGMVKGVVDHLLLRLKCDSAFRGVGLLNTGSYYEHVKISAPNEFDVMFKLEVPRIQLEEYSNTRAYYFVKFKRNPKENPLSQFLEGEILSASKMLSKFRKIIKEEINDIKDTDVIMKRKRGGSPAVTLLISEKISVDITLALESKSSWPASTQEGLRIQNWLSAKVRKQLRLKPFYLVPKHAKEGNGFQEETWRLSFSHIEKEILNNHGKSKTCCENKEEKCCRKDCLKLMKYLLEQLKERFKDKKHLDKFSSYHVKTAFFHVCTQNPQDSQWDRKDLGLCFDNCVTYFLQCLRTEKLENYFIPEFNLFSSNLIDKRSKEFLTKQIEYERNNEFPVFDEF

Point of comparison: `CCOc1ccc(NC(=O)/C(C#N)=C(\O)c2cnoc2C)cc1` [Example 28, (Z)-2-cyano-N-(4-ethoxyphenyl)-3-hydroxy-3-(5-methylisoxazol-4-yl)prop-2-enamide], IC50 750 nM. Against it:
- Cc1oncc1/C(O)=C(\C#N)C(=O)Nc1ccc(S(=O)(=O)N(C)C)cc1 [Example 1, (Z)-2-cyano-N-(4-(N,N-dimethylsulfamoyl)phenyl)-3-hydroxy-3-(5-methylisoxazol-4-yl)acrylamide] — 4.4-fold lower, 170 nM
- CC(=O)c1ccc(NC(=O)/C(C#N)=C(\O)c2cnoc2C)cc1 [Example 2, (Z)-N-(4-acetylphenyl)-2-cyano-3-hydroxy-3-(5-methylisoxazol-4-yl)prop-2-enamide] — within 1.5-fold, 510 nM
- Cc1oncc1/C(O)=C(\C#N)C(=O)Nc1ccccc1 [Example 3, (Z)-2-cyano-3-hydroxy-3-(5-methylisoxazol-4-yl)-N-phenylacrylamide] — within 1.5-fold, 1070 nM
- Cc1oncc1/C(O)=C(\C#N)C(=O)Nc1ccc(C(F)(F)F)cc1 [Example 4, (Z)-2-cyano-3-hydroxy-3-(5-methylisoxazol-4-yl)-N-(4-(trifluoromethyl)phenyl) acrylamide] — within 1.5-fold, 950 nM
- Cc1oncc1/C(O)=C(\C#N)C(=O)Nc1cccc(C(F)(F)F)c1 [Example 5, (Z)-2-cyano-3-hydroxy-3-(5-methylisoxazol-4-yl)-N-[3-(trifluoromethyl)phenyl] prop-2-enamide] — 2-fold higher, 1500 nM
- Cc1oncc1/C(O)=C(\C#N)C(=O)Nc1cc(C(F)(F)F)cc(C(F)(F)F)c1 [Example 6, (Z)-N-(3,5-bis(trifluoromethyl)phenyl)-2-cyano-3-hydroxy-3-(5-methylisoxazol-4-yl)acrylamide] — 9.3-fold higher, 6980 nM
- Cc1oncc1/C(O)=C(\C#N)C(=O)Nc1ccc(C#N)cc1 [Example 7, (Z)-2-cyano-N-(4-cyanophenyl)-3-hydroxy-3-(5-methylisoxazol-4-yl)acrylamide] — within 1.5-fold, 790 nM
- COC(=O)c1ccc(NC(=O)/C(C#N)=C(\O)c2cnoc2C)cc1 [Example 8, methyl (Z)-4-(2-cyano-3-hydroxy-3-(5-methylisoxazol-4-yl)acrylamido)benzoate] — 2.2-fold lower, 340 nM
- Cc1oncc1/C(O)=C(\C#N)C(=O)Nc1ccccc1C(F)(F)F [Example 9, (Z)-2-cyano-3-hydroxy-3-(5-methylisoxazol-4-yl)-N-(2-(trifluoromethyl)phenyl) acrylamide] — 9.7-fold higher, 7240 nM
- Cc1oncc1/C(O)=C(\C#N)C(=O)Nc1ccc(F)cc1 [Example 10, (Z)-2-cyano-N-(4-fluorophenyl)-3-hydroxy-3-(5-methylisoxazol-4-yl)acrylamide] — 2-fold higher, 1480 nM
- Cc1oncc1/C(O)=C(\C#N)C(=O)Nc1ccc(OC(F)(F)F)cc1 [Example 11, (Z)-2-cyano-3-hydroxy-3-(5-methylisoxazol-4-yl)-N-(4-(trifluoromethoxy)phenyl) acrylamide] — 1.7-fold higher, 1290 nM
- Cc1oncc1/C(O)=C(\C#N)C(=O)Nc1ccc(Cl)c(Cl)c1 [Example 12, (Z)-2-cyano-N-(3,4-dichlorophenyl)-3-hydroxy-3-(5-methylisoxazol-4-yl)acrylamide] — 3.5-fold higher, 2600 nM
- Cc1oncc1/C(O)=C(\C#N)C(=O)Nc1ccc(Sc2ccc(Cl)cc2)cc1 [Example 13, (Z)-N-(4-((4-chlorophenyl)thio)phenyl)-2-cyano-3-hydroxy-3-(5-methylisoxazol-4-yl)acrylamide] — 4.6-fold higher, 3470 nM
- CSc1ccc(NC(=O)/C(C#N)=C(\O)c2cnoc2C)cc1 [Example 14, (Z)-2-cyano-3-hydroxy-3-(5-methylisoxazol-4-yl)-N-(4-(methylthio)phenyl) acrylamide] — within 1.5-fold, 670 nM
- Cc1oncc1/C(O)=C(\C#N)C(=O)Nc1ccc(Cl)c(C(F)(F)F)c1 [Example 15, (Z)-N-(4-chloro-3-(trifluoromethyl)phenyl)-2-cyano-3-hydroxy-3-(5-methylisoxazol-4-yl)acrylamide] — 4.7-fold higher, 3560 nM
- Cc1oncc1/C(O)=C(\C#N)C(=O)Nc1ccc(S(=O)(=O)c2ccc(Cl)cc2)cc1 [Example 16, (Z)-N-(4-((4-chlorophenyl)sulfonyl)phenyl)-2-cyano-3-hydroxy-3-(5-methylisoxazol-4-yl)acrylamide] — 2.8-fold lower, 270 nM
- COc1ccc(NC(=O)/C(C#N)=C(\O)c2cnoc2C)cc1 [Example 17, (Z)-2-cyano-3-hydroxy-N-(4-methoxyphenyl)-3-(5-methylisoxazol-4-yl)acrylamide] — within 1.5-fold, 640 nM
- Cc1oncc1/C(O)=C(\C#N)C(=O)Nc1ccc(Oc2cccc(C(F)(F)F)c2)cc1 [Example 18, (Z)-2-cyano-3-hydroxy-3-(5-methylisoxazol-4-yl)-N-(4-(3-(trifluoromethyl)phenoxy)phenyl)acrylamide] — 4.9-fold higher, 3710 nM
- Cc1cc(NC(=O)/C(C#N)=C(\O)c2cnoc2C)ccc1Oc1ccc(C(F)(F)F)cc1 [Example 19, (Z)-2-cyano-3-hydroxy-N-(3-methyl-4-(4-(trifluoromethyl)phenoxy)phenyl)-3-(5-methylisoxazol-4-yl)acrylamide] — 9.9-fold higher, 7420 nM
- Cc1oncc1/C(O)=C(\C#N)C(=O)Nc1ccc(Cl)cc1 [Example 20, (Z)-N-(4-chlorophenyl)-2-cyano-3-hydroxy-3-(5-methylisoxazol-4-yl)acrylamide] — within 1.5-fold, 1120 nM
- Cc1oncc1/C(O)=C(\C#N)C(=O)Nc1ccc(-n2cccc2)cc1 [Example 21, (Z)-N-(4-(1H-pyrrol-1-yl)phenyl)-2-cyano-3-hydroxy-3-(5-methylisoxazol-4-yl)acrylamide] — 1.9-fold higher, 1440 nM
- Cc1cc(C#N)ccc1NC(=O)/C(C#N)=C(\O)c1cnoc1C [Example 22, (Z)-2-cyano-N-(4-cyano-2-methylphenyl)-3-hydroxy-3-(5-methylisoxazol-4-yl)acrylamide] — within 1.5-fold, 690 nM
- Cc1cc(NC(=O)/C(C#N)=C(\O)c2cnoc2C)ccc1Br [Example 23, (Z)-N-(4-bromo-3-methylphenyl)-2-cyano-3-hydroxy-3-(5-methylisoxazol-4-yl)acrylamide] — 2.4-fold higher, 1810 nM
- Cc1oncc1/C(O)=C(\C#N)C(=O)Nc1ccc(Oc2ccc(Cl)cc2)c(Cl)c1 [Example 24, (Z)-N-(3-chloro-4-(4-chlorophenoxy)phenyl)-2-cyano-2-hydroxy-3-(5-methylisoxazol-4-yl)acrylamide] — 5.8-fold higher, 4370 nM
- COC(=O)c1cccc(NC(=O)/C(C#N)=C(\O)c2cnoc2C)c1 [Example 25, methyl 3-[[(Z)-2-cyano-3-hydroxy-3-(5-methylisoxazol-4-yl)prop-2-enoyl]amino]benzoate] — 2-fold higher, 1520 nM
- Cc1oncc1/C(O)=C(\C#N)C(=O)Nc1cccc(S(C)(=O)=O)c1 [Example 26, (Z)-2-cyano-3-hydroxy-3-(5-methylisoxazol-4-yl)-N-(3-(methylsulfonyl)phenyl) acrylamide] — 2-fold higher, 1510 nM
- Cc1oncc1/C(O)=C(\C#N)C(=O)Nc1ccc(S(=O)(=O)N2CCCC2)cc1 [Example 27, (Z)-2-cyano-3-hydroxy-3-(5-methylisoxazol-4-yl)-N-(4-(pyrrolidin-1-ylsulfonyl)phenyl) acrylamide] — 5-fold lower, 150 nM
- COCCNS(=O)(=O)c1ccc(NC(=O)/C(C#N)=C(\O)c2cnoc2C)cc1 [Example 29, (Z)-2-cyano-3-hydroxy-N-(4-(N-(2-methoxyethyl)sulfamoyl)phenyl)-3-(5-methylisoxazol-4-yl)acrylamide] — 11-fold lower, 70 nM
- Cc1oncc1/C(O)=C(\C#N)C(=O)Nc1ccc(S(=O)(=O)c2ccccc2)cc1 [Example 30, (Z)-2-cyano-3-hydroxy-3-(5-methylisoxazol-4-yl)-N-(4-(phenylsulfonyl)phenyl) acrylamide] — 4.7-fold lower, 160 nM
- COc1ccc(NC(=O)/C(C#N)=C(\O)c2cnoc2C)cc1C [Example 31, (Z)-2-cyano-3-hydroxy-N-(4-methoxy-3-methyl-phenyl)-3-(5-methylisoxazol-4-yl)prop-2-enamide] — 1.7-fold higher, 1300 nM
- COC(=O)Cc1ccc(NC(=O)/C(C#N)=C(\O)c2cnoc2C)cc1 [Example 32, methyl 2-[4-[[(Z)-2-cyano-3-hydroxy-3-(5-methylisoxazol-4-yl)prop-2-enoyl]amino]phenyl] acetate] — within 1.5-fold, 530 nM
- Cc1oncc1/C(O)=C(\C#N)C(=O)Nc1cccc(C#N)c1 [Example 33, (Z)-2-cyano-N-(3-cyanophenyl)-3-hydroxy-3-(5-methylisoxazol-4-yl)prop-2-enamide] — 2.4-fold lower, 310 nM
- Cc1oncc1/C(O)=C(\C#N)C(=O)Nc1ccc([S+]([O-])c2ccccc2)cc1 (stereo not shown) [Example 34, (Z)-2-cyano-3-hydroxy-3-(5-methylisoxazol-4-yl)-N-(4-(phenylsulfinyl)phenyl) acrylamide] — 3.9-fold lower, 190 nM
